Source: patent publication US11117901B2, “Substituted pyrazolo[4,3-h]quinazolines as choline kinase inhibitors” (NERVIANO MEDICAL SCIENCES S.R.L., priority 2017, dated 2021)

Key:
[1] = target: T1, Δ49N-hChoKα (Homo sapiens, UniProt P35790); experiment: Biochemical kinase inhibition assay (Kinase-Glo luminescent) on Δ49N-hChoKα; conditions: recombinant Δ49N-hChoKα 2.2 nM, ATP 5 μM, choline 5 μM, 60 min rt; read-out: ChoKα IC50
T1 construct: cDNA fragment 362-1534, corresponding to aminoacids 50 457; GST (N, cleaved yes); PreScission Protease recognition site (N); made in house; host or cells: Escherichia coli BL21pLysS (DE3)
T1 sequence (P35790 50-439 isoform P35790-2): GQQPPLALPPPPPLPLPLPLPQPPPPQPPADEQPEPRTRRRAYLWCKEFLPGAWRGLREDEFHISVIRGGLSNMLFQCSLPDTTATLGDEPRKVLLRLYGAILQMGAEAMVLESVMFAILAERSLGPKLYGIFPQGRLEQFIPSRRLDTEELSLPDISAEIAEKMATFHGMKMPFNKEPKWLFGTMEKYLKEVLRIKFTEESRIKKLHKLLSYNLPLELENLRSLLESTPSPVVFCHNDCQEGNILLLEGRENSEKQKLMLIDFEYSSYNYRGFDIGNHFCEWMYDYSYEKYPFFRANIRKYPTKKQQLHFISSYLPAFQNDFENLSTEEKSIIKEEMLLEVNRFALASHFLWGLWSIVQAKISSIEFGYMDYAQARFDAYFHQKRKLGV
Description: (§1) HumanΔ49ChoKα ([…]Δ49N-hChoKα) cDNA fragment 362-1534, corresponding to aminoacids 50 457 (J. Mol. Biol. 2006, 364, 136-151), and hChoKβ full length (FL), corresponding to aminoacids 2-395 ((PLoS ONE 2009, 4, e7819), were amplified by PCR from human library and cloned, inserting upstream a Prescission Protease recognition site, in pDonor 221 vector, using the Gateway Technology® (Invitrogen). After sequence control, LR reaction was performed in the final expression pGEX 2Tg vector. Both the proteins were expressed in Escherichia coli BL21pLysS (DE3) strain in auto-induction (Kessler) medium in the presence of […] carbenicillin at 25° C. for 16 h. Cells were harvested by centrifugation, the pellet was re-suspended in Lysis buffer (50 mM Tris-HCl pH 7.8, 150 mM NaCl, 10% glycerol, 0.2% CHAPS, 20 mM DTT, Protease Inhibitor Cocktail Tablets from Roche Biochemicals) and lysed by Gaulin homogenizer (Niro Soavi). The lysate was cleared by centrifugation. The supernatant was added to GSH resin and let flow by gravity. The GSH resin was washed with 5 column volume (CV) of cold wash buffer (50 mM Tris-HCl pH 7.8, 150 mM NaCl, 10% glycerol), then with 10 CV of the same buffer containing 2 mM of DTT. Both GST-Δ49N-hChoKα and hChoKβ were subjected to on-column cleavage of the GST tag with Prescission Protease overnight. The eluted cleaved proteins were further purified by ion exchange (ResQ 6 mL chromatography column from GE healthcare) with a gradient from 50 to 500 mM NaCl in 30 CV. The fractions containing […]Δ49N-hChoKα or hChoKβ were pooled, concentrated and gel filtered on a Superdex200 16/60 (GE Healthcare). The final protein concentration was estimated using the Bradford assay. All the samples purified were resolved by SDS-PAGE.
(§2) Biochemical Kinase inhibition Assay on Δ49N-hChoKα and hChoKβFL
(§3) The biochemical activity of compounds against Δ49N-ChoKα and ChoK3 FL were determined using the Kinase-Glo™ Luminescent Kinase Assay (Promega cat. V6711). The assay is based on incubation of the recombinant Δ49N-hChoKα and hChoKβ FL produced in house, 2.2 nM and 30 nM, respectively, with the specific substrates, choline (Sigma-Aldrich-C7017) and ATP, followed by quantification, at the end of reaction time, of the residual not reacted ATP.
(§4) Compounds were 3-fold serially diluted from 10 to 0.0005 μM, then incubated for 60 minutes at room temperature in the presence of ATP 5 μM, choline (5 μM for ChoKα and 20 μM for ChoKβ) and enzyme in a final volume of 19 μL of kinase buffer (50 mM Hepes pH 7.5, 10 mM MgCl2, 1 mM DTT, 3 μM Na3VO4 and 0.2 mg/mL BSA). The final concentration of DMSO was 1%. The assay was run in a robotized format on 384-well plates (Perkin Elmer cat. #6005301).
(§5) At the end of the incubation, an amount of 19 μL of KinaseGlo Reagent was added to each well to stop the reaction and after 30 minutes the luminescence signal was measured using ViewLux reader (Perkin Elmer).
(§6) All information about plate dilution, distribution and raw data of inhibition are tracked via barcode reading and stored in an Oracle DB. The data per each molecule are analyzed by an internally customized version of the SW package “Assay Explorer” which provides sigmoidal fittings of the ten-dilution curves for IC50 determination using a 4 parameter logistic equation: y=bottom+(top−bottom)/(1+10^((log IC50−x)*slope)) where x is the logarithm of the inhibitor concentration, y is the response; y starts at bottom and goes to top with a sigmoid shape.

[2] = target: T2, hChoKβ FL (Homo sapiens, UniProt Q9Y259); experiment: Biochemical kinase inhibition assay (Kinase-Glo luminescent) on hChoKβ FL; conditions: recombinant hChoKβ FL 30 nM, ATP 5 μM, choline 20 μM, 60 min rt; read-out: ChoKβ IC50
T2 construct: hChoKβ full length (FL), corresponding to aminoacids 2-395; GST (N, cleaved yes); PreScission Protease recognition site (N); made in house; host or cells: Escherichia coli BL21pLysS (DE3)
T2 sequence (Q9Y259 2-395): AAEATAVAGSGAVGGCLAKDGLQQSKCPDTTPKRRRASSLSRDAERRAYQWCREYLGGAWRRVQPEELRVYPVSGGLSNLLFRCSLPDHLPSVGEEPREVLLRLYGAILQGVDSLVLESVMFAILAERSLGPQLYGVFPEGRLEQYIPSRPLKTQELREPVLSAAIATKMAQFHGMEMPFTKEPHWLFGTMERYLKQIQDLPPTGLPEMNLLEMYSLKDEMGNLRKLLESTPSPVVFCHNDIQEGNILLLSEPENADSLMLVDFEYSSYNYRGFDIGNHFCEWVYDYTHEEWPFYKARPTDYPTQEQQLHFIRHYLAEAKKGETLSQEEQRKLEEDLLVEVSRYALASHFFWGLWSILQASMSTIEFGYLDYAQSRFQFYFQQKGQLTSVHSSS
Description: as §1, §2, §3, §4, §5, §6

| Compound | IC50 [1] [nM] | IC50 [2] [nM] |
| --- | --- | --- |
| CN1CCC(NC(=O)c2cccc(NC(=O)c3n[nH]c4c3C(C)(C)Cc3cnc(N)nc3-4)c2)CC1 [compound 10] | 173 | 817 |
| CC1(C)Cc2cnc(N)nc2-c2[nH]nc(C(=O)Nc3cccc(CC(=O)N4CCC(N)CC4)c3)c21 [compound 149] | 164 | 3210 |
| CC1(C)CCC(N2CCC(OCc3csc(NC(=O)c4n[nH]c5c4C(C)(C)Cc4cnc(N)nc4-5)n3)CC2)CC1 [compound 190] | 8 | 546 |
| CC1CCN(C2CCN(C(=O)Cc3csc(NC(=O)c4nn(C)c5c4C(C)(C)Cc4cnc(N)nc4-5)n3)CC2)CC1 [compound 80] | 5 | 3160 |
| CC1(C)Cc2cnc(N)nc2-c2[nH]nc(C(=O)Nc3nc(CC(=O)N4CCN(C5CCCCC5)CC4)cs3)c21 [compound 150] | 6 | 352 |
| CC(C)(C)NC(=O)NC1CCN(C(=O)Cc2csc(NC(=O)c3n[nH]c4c3C(C)(C)Cc3cnc(N)nc3-4)n2)CC1 [compound 71] | 9 | 1950 |
| CC1CCN(C2CCN(C(=O)Cc3csc(NC(=O)c4n[nH]c5c4C(C)(C)Cc4cnc(N)nc4-5)n3)CC2)CC1 [compound 58] | 2 | 81 |
| CN(C)CCCNC(=O)Cc1csc(NC(=O)c2n[nH]c3c2C(C)(C)Cc2cnc(N)nc2-3)n1 [compound 95] | 15 | 126 |
| Cc1nc(NC(=O)c2n[nH]c3c2C(C)(C)Cc2cnc(N)nc2-3)sc1C(=O)N1CCC(N2CCCCC2)CC1 [compound 78] | 218 | 2590 |
| CC1(C)Cc2cnc(N)nc2-c2[nH]nc(C(=O)Nc3nc(C4(C(=O)N5CCC(N6CCCCC6)CC5)CC4)cs3)c21 [compound 131] | 233 | 3940 |
| CNC(=O)c1nn(C)c2c1C(C)(C)Cc1cnc(N)nc1-2 [Ref. cpd 2, reference compound] | > 10000 | – |
| Cn1nc(C(=O)Nc2cccc(CN3CCC(N4CCCCC4)CC3)c2)c2c1-c1nc(N)ncc1CC2(C)C [compound 109] | 431 | > 10000 |
| Cn1nc(C(=O)Nc2nc(COC3CCN(C4CCCCCC4)CC3)cs2)c2c1-c1nc(N)ncc1CC2(C)C [compound 217] | 18 | 3550 |
| CC1(C)Cc2cnc(N)nc2-c2[nH]nc(C(=O)Nc3ccc(C(=O)N4CCC(N)CC4)cc3)c21 [compound 49] | 623 | 765 |
| CC1(C)Cc2cnc(N)nc2-c2[nH]nc(C(=O)Nc3ccc(CC(=O)N4CCC(N5CCCCC5)CC4)cc3)c21 [compound 98] | 57 | 1290 |
| CC1(C)Cc2cnc(N)nc2-c2[nH]nc(C(=O)Nc3ccc(CNc4ccc(CN5CCC(N6CCCCC6)CC5)cc4)cc3)c21 [compound 126] | 3 | 592 |
| CC1(C)Cc2cnc(N)nc2-c2[nH]nc(C(=O)Nc3ccc(C(=O)NC4CCCC4)cc3)c21 [compound 29] | 132 | 71 |
| CC1(C)Cc2cnc(N)nc2-c2[nH]nc(C(=O)Nc3ccc(C(=O)N4CCC(N5CCOC5=O)CC4)cc3)c21 [compound 56] | 210 | 810 |
| CC1(C)Cc2cnc(N)nc2-c2[nH]nc(C(=O)Nc3ccc(C(=O)N[C@H]4CC[C@H](O)CC4)cc3)c21 [compound 28] | 511 | 3110 |
| CC1(C)Cc2cnc(N)nc2-c2[nH]nc(C(=O)Nc3nc(CC(=O)N4CC[C@@H](O)C4)cs3)c21 [compound 87] | 149 | > 10000 |
| CCOC(=O)c1cccc(NC(=O)c2n[nH]c3c2C(C)(C)Cc2cnc(N)nc2-3)c1 [compound 17] | 795 | 2290 |

| Compound | IC50 [1] [nM] | IC50 [2] [nM] |
| --- | --- | --- |
| CC1(C)Cc2cnc(N)nc2-c2[nH]nc(C(=O)Nc3nc(CN4CCC(N)CC4)cs3)c21 [compound 152] | 534 | > 10000 |
| CC1(C)Cc2cnc(N)nc2-c2[nH]nc(C(=O)Nc3nc4ccc(Cl)cc4s3)c21 [compound 64] | 306 | 4920 |
| CC1CCN([C@H]2CC[C@H](OCc3csc(NC(=O)c4n[nH]c5c4C(C)(C)Cc4cnc(N)nc4-5)n3)CC2)CC1 [compound 170] | 17 | 887 |
| CC1(C)Cc2cnc(N)nc2-c2[nH]nc(C(=O)Nc3nc(CC(=O)N4CCC(CO)CC4)cs3)c21 [compound 91] | 98 | > 10000 |
| Cc1csc(NC(=O)c2nn(C)c3c2C(C)(C)Cc2cnc(N)nc2-3)n1 [compound 155] | 629 | > 10000 |
| CC1(C)Cc2cnc(N)nc2-c2[nH]nc(C(=O)Nc3ncc(Cl)s3)c21 [compound 66] | 710 | 5810 |
| CC1CCN(C2CCN(C(=O)C(F)(F)c3csc(NC(=O)c4n[nH]c5c4C(C)(C)Cc4cnc(N)nc4-5)n3)CC2)CC1 [compound 191] | 7 | 303 |
| CNc1ncc2c(n1)-c1[nH]nc(C(=O)Nc3nc(CC(=O)N4CCC(N5CCCCC5)CC4)cs3)c1C(C)(C)C2 [compound 121] | 18 | > 10000 |
| Cc1nc(NC(=O)c2n[nH]c3c2C(C)(C)Cc2cnc(N)nc2-3)sc1C(=O)NC1CCN(C)CC1 [compound 79] | 69 | 2380 |
| CC1(C)Cc2cnc(N)nc2-c2[nH]nc(C(=O)Nc3ccc(C(=O)N4CCC(NC(=O)CCCO)CC4)cc3)c21 [compound 53] | 715 | 3510 |
| CC1(C)Cc2cnc(N)nc2-c2[nH]nc(C(=O)Nc3nc(C(F)(F)C(=O)N4CCC(N5CCCCC5)CC4)cs3)c21 [compound 183] | 13 | 654 |
| CN1CCN(c2ccc(NC(=O)c3n[nH]c4c3C(C)(C)Cc3cnc(N)nc3-4)cc2)CC1 [compound 6] | 735 | 317 |
| CC1(C)CCN(C2CCN(C(=O)Cc3csc(NC(=O)c4n[nH]c5c4C(C)(C)Cc4cnc(N)nc4-5)n3)CC2)CC1 [compound 218] | 2 | 254 |
| CC1CCN(C2(C)CCN(C(=O)Cc3csc(NC(=O)c4n[nH]c5c4C(C)(C)Cc4cnc(N)nc4-5)n3)CC2)CC1 [compound 227] | 2 | 26 |
| CN1CCC(NC(=O)c2ccc(NC(=O)c3n[nH]c4c3C(C)(C)Cc3cnc(N)nc3-4)cc2)CC1 [compound 8] | 87 | 565 |
| CC1(C)Cc2cnc(N)nc2-c2[nH]nc(C(=O)Nc3nc(C(=O)NC4CCCCC4)cs3)c21 [compound 68] | 161 | > 10000 |
| CC1(C)Cc2cnc(N)nc2-c2[nH]nc(C(=O)N3CCN(c4ccccc4)CC3)c21 [compound 161] | 507 | > 10000 |
| CN1CCC(NC(=O)c2csc(NC(=O)c3n[nH]c4c3C(C)(C)Cc3cnc(N)nc3-4)n2)CC1 [compound 69] | 36 | 88 |
| CC1(C)Cc2cnc(N)nc2-c2[nH]nc(C(=O)Nc3nc4ccccc4s3)c21 [compound 62] | 85 | 465 |
| CC1(C)Cc2cnc(N)nc2-c2[nH]nc(C(=O)Nc3nc(CC(=O)N4CCC(N)CC4)cs3)c21 [compound 44] | 25 | 256 |
| Cn1nc(C(N)=O)c2c1-c1nc(N)ncc1CC2(C)C [Ref. cpd 1, reference compound] | > 10000 | – |
